From the NIST ThermoML archive (doi:10.1016/j.jct.2016.09.041)

Assay: molar heat capacity at constant pressure
Settings: 101.33 kPa, Crystal, Small (less than 1 g) adiabatic calorimetry

N[C@@H](Cc1c[nH]c2ccccc12)C(=O)O [L-tryptophan]
Settings	molar heat capacity at constant pressure [J/K/mol]
5 K	0.6568
7.14 K	1.912
7.31 K	2.029
7.49 K	2.253
7.66 K	2.22
7.83 K	2.345
8.01 K	2.511
8.17 K	2.719
8.33 K	2.893
8.49 K	3.026
8.64 K	3.118
8.8 K	3.193
8.95 K	3.5
9.1 K	3.492
9.25 K	3.783
9.39 K	4.024
9.54 K	4.041
9.69 K	4.141
9.83 K	4.34
9.98 K	4.506
10 K	4.49
10.17 K	4.656
10.41 K	4.889
10.66 K	5.08
10.9 K	5.363
11.14 K	5.712
11.39 K	5.978
11.63 K	6.153
11.88 K	6.419
12.12 K	6.768
12.37 K	7.009
12.62 K	7.325
12.87 K	7.591
13.12 K	7.874
13.37 K	8.132
13.62 K	8.481
13.87 K	8.697
14.12 K	8.988
14.37 K	9.37
14.63 K	9.612
14.89 K	9.994
15 K	10.06
15.14 K	10.24
15.4 K	10.54
15.65 K	10.85
15.91 K	11.26
16.17 K	11.59
16.42 K	11.93
16.68 K	12.31
16.94 K	12.6
17.2 K	12.88
17.46 K	13.23
17.72 K	13.64
17.98 K	13.93
18.24 K	14.28
18.5 K	14.56
18.77 K	14.98
19.04 K	15.27
19.3 K	15.67
19.56 K	16.11
19.82 K	16.35
20 K	16.55
20.09 K	16.75
20.64 K	17.32
21.4 K	18.33
22.16 K	19.27
22.93 K	20.25
23.7 K	21.21
24.47 K	22.27
25 K	22.95
25.24 K	23.36
26.01 K	24.35
26.79 K	25.26
27.56 K	26.17
28.34 K	27.19
29.12 K	28.15
29.9 K	29.13
30 K	29.35
30.69 K	30.2
31.47 K	31.22
32.25 K	32.16
33.04 K	33.14
33.83 K	34.04
34.62 K	34.9
35 K	35.34
35.41 K	35.81
36.19 K	36.73
36.98 K	37.56
37.77 K	38.4
38.56 K	39.29
39.36 K	40.19
40 K	40.82
40.15 K	40.92
40.94 K	41.77
41.73 K	42.6
42.53 K	43.43
43.32 K	44.32
44.11 K	45.14
44.91 K	45.95
45 K	45.9
45.71 K	46.69
46.51 K	47.37
47.31 K	48.09
48.11 K	48.71
48.9 K	49.39
49.7 K	50.03
50 K	50.55
50.5 K	50.81
51.3 K	51.51
52.1 K	52.37
52.9 K	53.35
53.7 K	54.34
54.5 K	55.43
55.3 K	55.65
56.1 K	56.39
56.9 K	57.23
57.7 K	57.95
58.51 K	58.68
59.31 K	59.42
60 K	60.03
60.12 K	60.15
60.92 K	60.88
61.73 K	61.6
62.52 K	62.33
63.32 K	63.58
64.13 K	64.21
64.93 K	64.88
